The target in assay [1] is Carbonic anhydrase 9 (Homo sapiens, UniProt Q16790).
Description: Inhibition of human recombinant transmembrane carbonic anhydrase 9 after 6 hrs by stopped flow CO2 hydration method
In assay [2] the target is Carbonic anhydrase 1 (Homo sapiens, UniProt P00915). The experiment in a line: Inhibition of human recombinant cytosolic carbonic anhydrase 1 after 6 hrs by stopped flow CO2 hydration method.
Assay [3] has as its target Carbonic anhydrase 2 (Homo sapiens, UniProt P00918). The experiment in a line: Inhibition of human recombinant cytosolic carbonic anhydrase 2 after 6 hrs by stopped flow CO2 hydration method.
In assay [4] the target is Carbonic anhydrase 12 (Homo sapiens, UniProt O43570). The experiment in a line: Inhibition of human recombinant transmembrane carbonic anhydrase 12 after 6 hrs by stopped flow CO2 hydration method.

Where only a bound is given, the exact number is not on record here.

Carbonic anhydrase 1, sequence (P00915 whole entry): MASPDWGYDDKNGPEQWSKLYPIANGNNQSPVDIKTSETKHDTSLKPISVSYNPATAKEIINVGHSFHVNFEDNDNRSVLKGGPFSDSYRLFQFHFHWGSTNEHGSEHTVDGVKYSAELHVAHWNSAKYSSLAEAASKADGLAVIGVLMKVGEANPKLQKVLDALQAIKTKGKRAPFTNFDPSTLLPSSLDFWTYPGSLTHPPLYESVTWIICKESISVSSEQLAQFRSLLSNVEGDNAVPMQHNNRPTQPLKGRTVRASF
Carbonic anhydrase 12, sequence (O43570 whole entry): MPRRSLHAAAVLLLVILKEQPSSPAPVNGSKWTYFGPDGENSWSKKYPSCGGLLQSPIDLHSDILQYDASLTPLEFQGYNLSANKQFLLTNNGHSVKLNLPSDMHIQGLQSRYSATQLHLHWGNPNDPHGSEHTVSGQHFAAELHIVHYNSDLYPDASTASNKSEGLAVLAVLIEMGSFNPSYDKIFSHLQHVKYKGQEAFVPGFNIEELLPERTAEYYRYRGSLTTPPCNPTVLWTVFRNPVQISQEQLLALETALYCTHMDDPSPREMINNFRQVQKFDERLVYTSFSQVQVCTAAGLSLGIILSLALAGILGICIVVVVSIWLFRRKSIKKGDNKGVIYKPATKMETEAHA

By Ki is commonly meant a measure of affinity in units of concentration, obtained from inhibition or displacement. Consider `Cc1ccc(-n2nnnc2-c2ccc3c(c2)C=CS(=O)(=O)O3)cc1`, for which the figures for the inhibition constant (Ki) in assay [1], in assay [2] and in assay [3] were 0.0091 µM, over 10 µM and over 10 µM, respectively.
On to `O=S1(=O)C=Cc2cc(-n3cnnn3)ccc2O1`, for which the Ki in assay [2] and in assay [3] was over 10 µM throughout.
Take `O=S1(=O)C=Cc2cc(-c3nnnn3-c3ccccc3)ccc2O1`: the inhibitory constant (Ki) in assay [2] and in assay [3] was over 10 µM in each case.
As for `O=S1(=O)C=Cc2cc(-c3nnnn3-c3ccc(Cl)c(Cl)c3)ccc2O1`, the inhibition constant (Ki) in assay [1] was 0.0082 µM; in assay [2] it was over 10 µM; in assay [3] it was over 10 µM.
With `O=S1(=O)C=Cc2cc(-c3nnnn3-c3cccc(Br)c3)ccc2O1`, the Ki in assay [1] was 0.0568 µM; in assay [2], over 10 µM; in assay [3] it was over 10 µM.
As for `Cc1nnnn1-c1ccc2c(c1)C=CS(=O)(=O)O2`, the Ki in assay [2] and in assay [3] was over 10 µM each time.
`O=S1(=O)C=Cc2cc(-c3nnnn3-c3ccc(Cl)cc3)ccc2O1`: the inhibition constant Ki is 0.0088 µM in assay [1], over 10 µM in assay [2] and over 10 µM in assay [3].
For `O=S1(=O)C=Cc2cc(-c3nnnn3-c3ccc(C(F)(F)F)cc3)ccc2O1`, the Ki in assay [1] is 0.0393 µM; in assay [2] it was over 10 µM; in assay [3], over 10 µM.
As for `O=S1(=O)C=Cc2cc(-c3nnnn3-c3cccc4ccccc34)ccc2O1`, the Ki in assay [2] and in assay [3] was over 10 µM in each case.
`Cc1cccc(-n2nnnc2-c2ccc3c(c2)C=CS(=O)(=O)O3)c1`: the Ki in assay [1] is 0.0271 µM; in assay [2], over 10 µM; in assay [3], over 10 µM.
With `O=S1(=O)C=Cc2cc(-c3nnnn3-c3ccc(F)c(Cl)c3)ccc2O1`, the Ki in assay [1] was 0.0069 µM; in assay [2], over 10 µM; in assay [4] it was 0.0054 µM; in assay [3], over 10 µM.
On to `COc1ccc(-n2nnnc2-c2ccc3c(c2)C=CS(=O)(=O)O3)cc1`, for which the inhibition constant Ki is 0.0087 µM in assay [1], over 10 µM in assay [2] and over 10 µM in assay [3].

The values are drawn from ChEMBL document CHEMBL3112455, “Synthesis of 6-tetrazolyl-substituted sulfocoumarins acting as highly potent and selective inhibitors of the tumor-associated carbonic anhydrase isoforms IX and XII” (Bioorg Med Chem, 2014).
